# Data as given in patent publication US20100137315A1, “Sphingosine Kinase Inhibitors and Methods of Their Use” (APOGEE BIOTECHNOLOGY CORPORATION, priority 2005, published 2010).
# Like-named read-outs stand apart in the source and are kept apart here.
# Experiments:
# [1] = molecular target: Protein kinase C ε (Homo sapiens, UniProt Q02156); test: Kinase selectivity panel; type: biochemical; settings: read-out: percent of control activity of Protein kinase C ε
# Procedure: (§1) A common problem with previous attempts to develop protein kinase inhibitors is the lack of selectivity toward the target kinase since the majority of these compounds interact with nucleotide-binding domains that are highly conserved among kinases. To determine if compound of this invention are non-selective kinase inhibitors, the effects of the SK inhibitor, Compound 73, on a diverse panel of 20 purified kinases was determined. The compound was tested at a single concentration of 50 μM.
# [2] = molecular target: cSrc (Homo sapiens, UniProt P12931); test: Kinase selectivity panel; type: biochemical; settings: read-out: percent of control activity of cSrc
# Procedure: as §1
# [3] = molecular target: CHK1 (Homo sapiens, UniProt O14757); test: Kinase selectivity panel; type: biochemical; settings: read-out: percent of control activity of CHK1
# Procedure: as §1
# [4] = molecular target: PKA (Homo sapiens, UniProt P17612); test: Kinase selectivity panel; type: biochemical; settings: read-out: percent of control activity of PKA
# Procedure: as §1
# [5] = molecular target: Ca^2+/calmodulin PK IV (Homo sapiens, UniProt Q16566); test: Kinase selectivity panel; type: biochemical; settings: read-out: percent of control activity of Ca^2+/calmodulin PK IV
# Procedure: as §1
# [6] = molecular target: PKBγ (Homo sapiens, UniProt Q9Y243); test: Kinase selectivity panel; type: biochemical; settings: read-out: percent of control activity of PKBγ
# Procedure: as §1
# [7] = molecular target: PKBα (Homo sapiens, UniProt P31749); test: Kinase selectivity panel; type: biochemical; settings: read-out: percent of control activity of PKBα
# Procedure: as §1
# [8] = molecular target: cRaf (Homo sapiens, UniProt P04049); test: Kinase selectivity panel; type: biochemical; settings: read-out: percent of control activity of cRaf
# Procedure: as §1
# [9] = molecular target: PDK1 (Homo sapiens, UniProt O15530); test: Kinase selectivity panel; type: biochemical; settings: read-out: percent of control activity of PDK1
# Procedure: as §1
# [10] = molecular target: EFGR (Homo sapiens, UniProt P00533); test: Kinase selectivity panel; type: biochemical; settings: read-out: percent of control activity of EFGR
# Sequence of EFGR (P00533 25-1210): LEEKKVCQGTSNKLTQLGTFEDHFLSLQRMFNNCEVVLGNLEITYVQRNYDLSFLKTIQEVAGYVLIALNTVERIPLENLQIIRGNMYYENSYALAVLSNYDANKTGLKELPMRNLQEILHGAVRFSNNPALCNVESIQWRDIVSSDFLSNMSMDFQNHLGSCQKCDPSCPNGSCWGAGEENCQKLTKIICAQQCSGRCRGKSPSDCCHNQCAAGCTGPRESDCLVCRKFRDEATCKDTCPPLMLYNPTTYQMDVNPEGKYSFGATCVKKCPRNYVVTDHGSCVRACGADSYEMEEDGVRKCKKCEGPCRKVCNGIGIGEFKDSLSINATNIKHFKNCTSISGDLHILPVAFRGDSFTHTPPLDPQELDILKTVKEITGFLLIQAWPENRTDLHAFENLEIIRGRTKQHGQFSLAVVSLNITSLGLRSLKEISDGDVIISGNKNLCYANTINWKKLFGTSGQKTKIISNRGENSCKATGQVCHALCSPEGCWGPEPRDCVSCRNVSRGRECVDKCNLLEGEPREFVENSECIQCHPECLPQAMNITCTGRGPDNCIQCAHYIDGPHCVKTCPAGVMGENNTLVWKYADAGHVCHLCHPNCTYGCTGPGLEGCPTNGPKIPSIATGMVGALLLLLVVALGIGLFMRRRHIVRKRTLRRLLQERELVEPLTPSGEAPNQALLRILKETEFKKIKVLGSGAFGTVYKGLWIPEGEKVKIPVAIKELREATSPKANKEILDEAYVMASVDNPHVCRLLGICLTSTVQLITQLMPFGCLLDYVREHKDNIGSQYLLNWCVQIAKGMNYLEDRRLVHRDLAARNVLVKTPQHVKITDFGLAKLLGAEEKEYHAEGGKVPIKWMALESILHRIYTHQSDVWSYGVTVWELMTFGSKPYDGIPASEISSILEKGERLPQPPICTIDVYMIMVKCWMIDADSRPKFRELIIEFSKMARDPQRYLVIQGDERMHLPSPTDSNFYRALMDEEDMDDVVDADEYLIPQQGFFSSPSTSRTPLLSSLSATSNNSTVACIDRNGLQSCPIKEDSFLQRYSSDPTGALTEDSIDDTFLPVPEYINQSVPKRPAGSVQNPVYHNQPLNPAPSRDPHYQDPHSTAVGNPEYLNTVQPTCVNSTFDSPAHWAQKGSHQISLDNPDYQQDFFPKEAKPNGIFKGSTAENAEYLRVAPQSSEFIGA
# Procedure: as §1
# [11] = molecular target: Aurora-A (Homo sapiens, UniProt O14965); test: Kinase selectivity panel; type: biochemical; settings: read-out: percent of control activity of Aurora-A
# Procedure: as §1
# [12] = molecular target: Abl (Homo sapiens, UniProt P00519); test: Kinase selectivity panel; type: biochemical; settings: read-out: percent of control activity of Abl
# Sequence of Abl (P00519 whole entry, species assumed): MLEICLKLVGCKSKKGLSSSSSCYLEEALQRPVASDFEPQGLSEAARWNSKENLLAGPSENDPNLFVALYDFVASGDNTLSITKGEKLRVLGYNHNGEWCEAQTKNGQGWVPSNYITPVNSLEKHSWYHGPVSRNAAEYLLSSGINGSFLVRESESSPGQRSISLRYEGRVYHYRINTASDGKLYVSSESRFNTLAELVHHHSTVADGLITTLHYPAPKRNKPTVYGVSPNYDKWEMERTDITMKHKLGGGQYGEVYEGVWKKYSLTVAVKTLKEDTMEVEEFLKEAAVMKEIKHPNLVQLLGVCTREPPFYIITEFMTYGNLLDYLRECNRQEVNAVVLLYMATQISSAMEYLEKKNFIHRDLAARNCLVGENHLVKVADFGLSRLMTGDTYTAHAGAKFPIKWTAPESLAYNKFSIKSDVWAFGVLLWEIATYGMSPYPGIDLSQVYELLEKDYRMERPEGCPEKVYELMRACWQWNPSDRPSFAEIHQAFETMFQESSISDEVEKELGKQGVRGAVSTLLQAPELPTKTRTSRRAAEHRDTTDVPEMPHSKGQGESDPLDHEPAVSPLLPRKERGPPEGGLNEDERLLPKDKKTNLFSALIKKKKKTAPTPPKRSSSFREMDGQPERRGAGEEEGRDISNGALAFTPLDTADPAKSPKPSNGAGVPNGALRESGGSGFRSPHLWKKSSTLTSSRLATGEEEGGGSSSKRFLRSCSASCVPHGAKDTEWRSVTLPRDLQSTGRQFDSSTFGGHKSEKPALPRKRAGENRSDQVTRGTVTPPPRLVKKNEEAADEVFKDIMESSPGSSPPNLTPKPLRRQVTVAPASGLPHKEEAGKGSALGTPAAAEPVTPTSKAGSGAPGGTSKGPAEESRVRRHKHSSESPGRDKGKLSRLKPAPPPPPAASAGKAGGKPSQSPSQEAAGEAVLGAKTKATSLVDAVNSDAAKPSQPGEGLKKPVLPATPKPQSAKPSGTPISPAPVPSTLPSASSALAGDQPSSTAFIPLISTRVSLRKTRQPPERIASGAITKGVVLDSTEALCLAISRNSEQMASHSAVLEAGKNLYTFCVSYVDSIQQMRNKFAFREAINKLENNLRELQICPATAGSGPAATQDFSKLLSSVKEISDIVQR
# Procedure: as §1
# [13] = molecular target: CDK1/cyclinB (Homo sapiens, UniProt P06493); test: Kinase selectivity panel; type: biochemical; settings: read-out: percent of control activity of CDK1/cyclinB
# Procedure: as §1
# [14] = molecular target: P38 MAP kinase 2 (Homo sapiens, UniProt Q15759); test: Kinase selectivity panel; type: biochemical; settings: read-out: percent of control activity of P38 MAP kinase 2
# Sequence of P38 MAP kinase 2 (Q15759 whole entry): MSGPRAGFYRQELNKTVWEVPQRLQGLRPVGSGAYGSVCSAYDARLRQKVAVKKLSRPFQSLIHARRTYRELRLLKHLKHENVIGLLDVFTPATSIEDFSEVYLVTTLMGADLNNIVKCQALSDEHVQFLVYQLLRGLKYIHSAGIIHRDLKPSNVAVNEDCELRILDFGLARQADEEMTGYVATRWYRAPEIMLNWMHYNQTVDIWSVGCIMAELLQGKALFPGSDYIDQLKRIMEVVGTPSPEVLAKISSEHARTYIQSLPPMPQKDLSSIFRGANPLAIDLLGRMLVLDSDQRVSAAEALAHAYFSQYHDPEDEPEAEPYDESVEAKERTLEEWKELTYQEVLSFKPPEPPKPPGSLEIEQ
# Procedure: as §1
# [15] = molecular target: P38 MAP kinase 1 (Homo sapiens, UniProt Q16539); test: Kinase selectivity panel; type: biochemical; settings: read-out: percent of control activity of P38 MAP kinase 1
# Sequence of P38 MAP kinase 1 (Q16539 whole entry): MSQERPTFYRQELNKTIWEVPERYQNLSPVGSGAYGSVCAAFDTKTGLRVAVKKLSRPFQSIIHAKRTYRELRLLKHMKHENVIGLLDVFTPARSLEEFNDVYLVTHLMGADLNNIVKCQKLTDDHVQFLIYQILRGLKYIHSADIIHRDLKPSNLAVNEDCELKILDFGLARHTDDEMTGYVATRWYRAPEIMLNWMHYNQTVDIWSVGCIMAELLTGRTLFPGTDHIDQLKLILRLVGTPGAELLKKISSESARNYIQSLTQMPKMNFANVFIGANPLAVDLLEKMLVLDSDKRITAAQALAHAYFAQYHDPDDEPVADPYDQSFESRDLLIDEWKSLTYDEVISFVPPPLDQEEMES
# Procedure: as §1
# [16] = molecular target: IKKα (Homo sapiens, UniProt O15111); test: Kinase selectivity panel; type: biochemical; settings: read-out: percent of control activity of IKKα
# Sequence of IKKα (O15111 whole entry, species assumed): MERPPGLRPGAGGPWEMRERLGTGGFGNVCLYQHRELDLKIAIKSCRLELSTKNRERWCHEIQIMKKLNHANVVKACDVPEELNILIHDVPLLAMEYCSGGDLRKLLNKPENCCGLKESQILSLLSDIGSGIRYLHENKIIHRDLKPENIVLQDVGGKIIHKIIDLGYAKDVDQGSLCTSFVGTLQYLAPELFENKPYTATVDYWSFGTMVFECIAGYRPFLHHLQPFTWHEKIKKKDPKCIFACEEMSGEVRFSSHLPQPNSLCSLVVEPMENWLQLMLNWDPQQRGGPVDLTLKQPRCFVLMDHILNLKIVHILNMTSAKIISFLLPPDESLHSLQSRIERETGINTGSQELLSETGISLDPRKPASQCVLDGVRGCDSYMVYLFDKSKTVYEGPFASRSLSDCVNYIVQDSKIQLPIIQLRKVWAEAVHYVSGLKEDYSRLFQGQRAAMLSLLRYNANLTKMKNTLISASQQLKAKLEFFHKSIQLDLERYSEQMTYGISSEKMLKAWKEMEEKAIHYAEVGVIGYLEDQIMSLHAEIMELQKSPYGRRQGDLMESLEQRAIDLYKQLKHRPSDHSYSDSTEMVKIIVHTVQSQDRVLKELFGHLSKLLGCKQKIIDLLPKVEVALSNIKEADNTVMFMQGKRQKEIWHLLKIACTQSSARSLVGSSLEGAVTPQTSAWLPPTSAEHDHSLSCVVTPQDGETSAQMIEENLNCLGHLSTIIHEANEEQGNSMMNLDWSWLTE
# Procedure: as §1
# [17] = molecular target: Protein kinase C α (Homo sapiens, UniProt P17252); test: Kinase selectivity panel; type: biochemical; settings: read-out: percent of control activity of Protein kinase C α
# Procedure: as §1
# [18] = molecular target: Fyn (Homo sapiens, UniProt P06241); test: Kinase selectivity panel; type: biochemical; settings: read-out: percent of control activity of Fyn
# Sequence of Fyn (P06241 whole entry, species assumed): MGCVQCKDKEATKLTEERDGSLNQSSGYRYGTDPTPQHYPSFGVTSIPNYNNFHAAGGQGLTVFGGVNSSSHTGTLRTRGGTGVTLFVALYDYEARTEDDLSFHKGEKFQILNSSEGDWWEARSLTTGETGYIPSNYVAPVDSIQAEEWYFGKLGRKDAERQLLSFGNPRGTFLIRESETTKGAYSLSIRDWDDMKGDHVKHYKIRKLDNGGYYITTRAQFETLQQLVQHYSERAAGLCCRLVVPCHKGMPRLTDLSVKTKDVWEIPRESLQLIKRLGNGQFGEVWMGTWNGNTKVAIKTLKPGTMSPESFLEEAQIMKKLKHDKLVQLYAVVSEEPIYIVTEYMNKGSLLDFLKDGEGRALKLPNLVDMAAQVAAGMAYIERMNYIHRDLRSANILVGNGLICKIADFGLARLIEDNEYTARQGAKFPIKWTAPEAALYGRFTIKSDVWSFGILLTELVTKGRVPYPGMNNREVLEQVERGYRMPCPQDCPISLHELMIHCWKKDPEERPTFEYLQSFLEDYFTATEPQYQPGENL
# Procedure: as §1
# [19] = molecular target: CDK2/cyclinE (Homo sapiens, UniProt P24941); test: Kinase selectivity panel; type: biochemical; settings: read-out: percent of control activity of CDK2/cyclinE
# Procedure: as §1
# [20] = tested on: MEK kinase 1; test: Kinase selectivity panel; type: biochemical; settings: 50 μM
# Procedure: as §1
# [21] = tested on: human endothelial cells; test: TNFα-induced PGE2 production (Cox-2 activity), ELISA; type: cell-based; settings: 100 ng TNFα/mL, 18 hours, 10 μg/mL compound
# Procedure: (§2) FIG. 3. Inhibition of TNFα-induced Cox-2 activity by Compound 8. Rat IEC6 cells (Panel A) or human endothelial cells (Panel B) were incubated for 18 hours with dimethylsulfoxide (DMSO) as a solvent control, or 100 ng of TNFα/mL in the presence of DMSO or 10 μg/mL of Compound 8. Levels of PGE2 secreted into the medium were quantified by ELISA. Values represent the mean±sd for triplicate samples in a typical experiment.
# (§3) To determine the effects of the SK inhibitors on Cox-2 activity, an ELISA assay was used to measure PGE2 production by IEC6 rat intestinal epithelial cells and human endothelial cells treated with TNFα.
# [22] = tested on: IEC6 rat intestinal epithelial cells; test: as above; type: cell-based; settings: 100 ng TNFα/mL, 18 hours, 10 μg/mL compound
# Procedure: as §2, §3
# [23] = Oral pharmacokinetics in mice; type: in vivo; settings: mouse, whole blood; for AUC(0-inf): 100 mg/kg oral gavage in PEG400, female Swiss-Webster mice, blood
# Procedure: Oral pharmacokinetic studies were performed on Compound 8. The compound was dissolved in PEG400 and administered to female Swiss-Webster mice at a dose of 100 mg/kg by oral gavage. Mice were anesthetized and blood was removed via cardiac puncture at 5 minutes, 30 minutes, 1, 2, and 8 hours. Concentrations of the test compounds were determined using liquid-liquid extraction, appropriate internal standards and reverse phase HPLC with UV detection. Control blood samples were run to identify compound-specific peaks. Pharmacokinetic parameters were calculated using the WINNONLIN analysis software package (Pharsight). Non-compartmental and compartmental models were tested, with the results shown in Table 8 derived from the best fit equations.
# [24] = female, Swiss-Webster, 100 mg/kg oral gavage, mice
# Sequence of Protein kinase C ε (Q02156 whole entry, the tested form may be a part): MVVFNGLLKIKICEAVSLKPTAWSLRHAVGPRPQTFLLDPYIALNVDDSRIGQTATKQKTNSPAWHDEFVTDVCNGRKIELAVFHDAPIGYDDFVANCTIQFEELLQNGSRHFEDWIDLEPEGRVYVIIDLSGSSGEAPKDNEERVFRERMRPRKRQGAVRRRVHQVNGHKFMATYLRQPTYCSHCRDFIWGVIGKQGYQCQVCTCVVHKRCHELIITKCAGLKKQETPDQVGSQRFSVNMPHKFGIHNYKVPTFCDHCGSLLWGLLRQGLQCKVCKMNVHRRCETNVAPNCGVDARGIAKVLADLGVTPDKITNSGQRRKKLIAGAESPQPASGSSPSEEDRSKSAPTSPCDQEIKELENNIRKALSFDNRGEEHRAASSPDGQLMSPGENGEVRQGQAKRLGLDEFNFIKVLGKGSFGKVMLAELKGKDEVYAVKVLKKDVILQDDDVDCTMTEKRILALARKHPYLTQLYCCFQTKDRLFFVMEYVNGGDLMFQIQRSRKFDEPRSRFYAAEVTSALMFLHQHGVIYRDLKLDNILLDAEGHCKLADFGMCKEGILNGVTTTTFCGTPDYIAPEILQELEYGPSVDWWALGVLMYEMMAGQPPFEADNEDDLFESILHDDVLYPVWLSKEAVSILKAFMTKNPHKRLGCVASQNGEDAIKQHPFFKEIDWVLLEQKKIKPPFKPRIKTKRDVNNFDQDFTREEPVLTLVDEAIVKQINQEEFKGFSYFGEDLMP
smiles,measurement,setting,value
"Clc1ccc(-c2csc(NCc3ccccc3)n2)cc1 [Compound 73, Benzyl-[4-(4-chloro-phenyl)-thiazol-2-yl]-amine]",remaining activity at 50 µM,[1],91 ± 2%
same,remaining activity at 50 µM,[2],119 ± 6%
same,remaining activity at 50 µM,[3],124%
same,remaining activity at 50 µM,[4],94 ± 4%
same,remaining activity at 50 µM,[5],113 ± 3%
same,remaining activity at 50 µM,[6],100 ± 10%
same,remaining activity at 50 µM,[7],102 ± 1%
same,remaining activity at 50 µM,[8],104 ± 1%
same,remaining activity at 50 µM,[9],98 ± 6%
same,remaining activity at 50 µM,[10],99 ± 9%
same,remaining activity at 50 µM,[11],100%
same,remaining activity at 50 µM,[12],100 ± 1%
same,remaining activity at 50 µM,[13],100%
same,remaining activity at 50 µM,[14],101%
same,remaining activity at 50 µM,[15],88 ± 1%
same,remaining activity at 50 µM,[16],152 ± 7%
same,remaining activity at 50 µM,[17],92 ± 1%
same,remaining activity at 50 µM,[18],102%
same,remaining activity at 50 µM,[19],102 ± 7%
same,percent of control activity of MEK kinase 1,[20],104 ± 3%
"CCCC(=O)Oc1ccc(C=CC(=O)Nc2nc(-c3ccc(Cl)cc3)cs2)cc1OC [Compound 8, Butyric acid 4-{2-[4-(4-chloro-phenyl)-thiazol-2-ylcarbamoyl]-vinyl}-2-methoxy-phenyl ester]",TNFα-induced Cox-2 activity (PGE2 production),[21],strongly suppressed
same,TNFα-induced Cox-2 activity (PGE2 production),[22],strongly suppressed
same,Cmax,[23]; [24],34.4 µM
same,Tmax,[23]; [24],1 h
same,half-life,[23]; [24],31.9 h
same,AUC(0-inf),[23]; read-out: AUC0 → ∞ (μM*h),1500 µM·h
same,AUC(0-inf),[23]; read-out: AUC0 → ∞ (μg*h/mL),475 µg·h/mL
